Results on four compounds are retold here after patent US20240409585A1, “MACROCYCLIC IMMUNOMODULATORS” (priority 2021, published 2024).

For experiment [1], the target named is T1, PE-labeled human PD-L1-Ig binding to Jurkat cell line over-expressing human PD-1 (Jurkat-PD-1) (Homo sapiens, UniProt Q15116).
T1 construct: expressed in transfected cells; host or cells: Jurkat
Description: Jurkat-PD-1 Cell Binding High-Content Screening Assay (CBA): Method 2 (presence and absence of tween-20). To be noted: Jurkat-PD-1 cells, PE-labeled PD-L1-Ig 20 nM; presence or absence of tween-20 not given; head μM; read-out: CBA Method 2 μM. On the procedure: Jurkat-PD-1 Cell Binding High-Content Screening Assay (CBA): Method 2
Phycoerythrin (PE) was covalently linked to the Ig epitope tag of human PD-L1-Ig and fluorescently labeled PD-L1-Ig was used for binding studies with a Jurkat cell line over-expressing human PD-1 (Jurkat-PD-1). […] 100 nl of compound was added to cells followed by incubation at 37° C. for 2 hours. To interrogate potential issues with compound aggregation, compounds were tested in the presence and absence of tween-20 detergent. […] Then, 5 μl of PE-labeled PD-L1-Ig (20 nM final), diluted in DMEM supplemented with 10% fetal calf serum. […] Data was collected and processed using a Cell Insight NXT High Content Imager and associated software.

For experiment [2], the target named is T1, PE-labeled human PD-L1-Ig binding to Jurkat cell line over-expressing human PD-1 (Jurkat-PD-1). Description: Jurkat-PD-1 Cell Binding High-Content Screening Assay (CBA): Method 1. To be noted: Jurkat-PD-1 cells, PE-labeled PD-L1-Ig; μM; read-out: CBA Method 1 μM.
Description: Phycoerythrin (PE) was covalently linked to the Ig epitope tag of human PD-L1-Ig and fluorescently-labeled PD-L1-Ig was used for binding studies with a Jurkat cell line over-expressing human PD-1 (Jurkat-PD-1). Briefly, 8×10^3 Jurkat-hPD-1 cells were seeded into 384 well plates in 20 μl of DMEM supplemented with 10% fetal calf serum. 100 nl of compound was added to cells followed by incubation at 37° C. for 2 hours. Then, 5 μl of PE-labeled PD-L1-Ig (20 nM final), diluted in DMEM supplemented with 10% fetal calf serum. […] Data was collected and processed using a Cell Insight NXT High Content Imager and associated software.

Structures are written as SMILES. Bridge positions count the residues as written; N and C are the ends. Square brackets hold non-standard residues; d marks the D form. Peptide text beside a SMILES is read from it. * marks the point of attachment. Bip(4'-COOH) = N[C@@H](Cc1ccc(-c2ccc(C(=O)O)cc2)cc1)C(=O)O; Bip(4'-NHAc) = CC(=O)Nc1ccc(-c2ccc(C[C@H](N)C(=O)O)cc2)cc1; Ala(morpholin-4-yl) = N[C@@H](CN1CCOCC1)C(=O)O; Phe(4-CONH2) = NC(=O)c1ccc(C[C@H](N)C(=O)O)cc1; Phe(4-COOH) = N[C@@H](Cc1ccc(C(=O)O)cc1)C(=O)O; Bip = N[C@@H](Cc1ccc(-c2ccccc2)cc1)C(=O)O; Phe(3-F) = N[C@@H](Cc1cccc(F)c1)C(=O)O; Phe(3-Me) = Cc1cccc(C[C@H](N)C(=O)O)c1; Abu(3S-NH2) = C[C@H](N)[C@H](N)C(=O)O; hPhe = N[C@@H](CCc1ccccc1)C(=O)O; Cha = N[C@@H](CC1CCCCC1)C(=O)O; Carboxymethyl = O=C(O)C*; NMeA = CN[C@@H](C)C(=O)O; Orn = NCCC[C@H](N)C(=O)O; Dab = NCC[C@H](N)C(=O)O

T1 sequence (Q15116 25-288): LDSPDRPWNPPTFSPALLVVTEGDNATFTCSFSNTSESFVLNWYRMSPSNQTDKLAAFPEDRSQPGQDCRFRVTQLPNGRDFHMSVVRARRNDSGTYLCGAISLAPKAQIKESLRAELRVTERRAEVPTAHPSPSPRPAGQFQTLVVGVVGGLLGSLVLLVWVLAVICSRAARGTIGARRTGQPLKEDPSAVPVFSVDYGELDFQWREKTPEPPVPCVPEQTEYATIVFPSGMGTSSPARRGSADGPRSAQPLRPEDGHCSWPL

Regarding `CC(=O)Nc1ccc(-c2ccc(C[C@@H]3NC(=O)[C@H](Cc4cccc(C)c4)NC(=O)[C@H](CC(=O)O)NC(=O)[C@H](Cc4ccc(C(=O)O)cc4)NC(=O)[C@H]([C@H](C)N)NC(=O)CSC[C@@H](C(=O)N[C@@H](CCN)C(N)=O)NC(=O)[C@H](CCCN)NC(=O)[C@H](C(C)C)NC(=O)[C@H](CC4CCCCC4)NC(=O)[C@H](CCN)NC(=O)[C@@H](CC(C)C)NC(=O)[C@H](C)N(C)C(=O)[C@H](CCC(N)=O)NC(=O)[C@H](Cc4ccc(-c5ccccc5)cc4)NC3=O)cc2)cc1` [Example 5051] ({CH2CO}-[Abu(3S-NH2)][Phe(4-COOH)]D[Phe(3-Me)][Bip(4'-NHAc)][Bip]Q[NMeA][dL][Dab][Cha]V[Orn]C[Dab]-NH2; thioether N-14), the IC50 in experiment [1] was 0.0021 µM; in experiment [2], 0.0032 µM.
As to `Cc1cccc(C[C@@H]2NC(=O)[C@H](CC(=O)O)NC(=O)[C@H](Cc3ccc(OCC(=O)O)cc3)NC(=O)[C@H](CN3CCOCC3)NC(=O)CSC[C@@H](C(=O)N[C@@H](CCN)C(N)=O)NC(=O)[C@H](CCCN)NC(=O)[C@H](C(C)C)NC(=O)[C@H](CCc3ccccc3)NC(=O)[C@H](CCN)NC(=O)[C@@H](CC(C)C)NC(=O)[C@H](C)N(C)C(=O)[C@H](CCC(N)=O)NC(=O)[C@H](Cc3ccc(-c4ccccc4)cc3)NC(=O)[C@H](Cc3ccc(C(=O)O)cc3)NC2=O)c1` [Example 5015] ({CH2CO}-[Ala(morpholin-4-yl)]Y(Carboxymethyl)D[Phe(3-Me)][Phe(4-COOH)][Bip]Q[NMeA][dL][Dab][hPhe]V[Orn]C[Dab]-NH2; thioether N-14), the IC50 in experiment [1] came out at 0.31 µM; in experiment [2], 0.21 µM.
For `Cc1cccc(C[C@@H]2NC(=O)[C@H](CC(=O)O)NC(=O)[C@H](Cc3ccc(C(=O)O)cc3)NC(=O)[C@H](CN3CCOCC3)NC(=O)CSC[C@@H](C(=O)N[C@@H](CCN)C(N)=O)NC(=O)[C@H](CCCN)NC(=O)[C@H](C(C)C)NC(=O)[C@H](Cc3cccc(F)c3)NC(=O)[C@H](CCN)NC(=O)[C@@H](CC(C)C)NC(=O)[C@H](C)N(C)C(=O)[C@H](CCC(N)=O)NC(=O)[C@H](Cc3ccc(-c4ccccc4)cc3)NC(=O)[C@H](Cc3ccc(-c4ccc(C(=O)O)cc4)cc3)NC2=O)c1` [Example 5060] ({CH2CO}-[Ala(morpholin-4-yl)][Phe(4-COOH)]D[Phe(3-Me)][Bip(4'-COOH)][Bip]Q[NMeA][dL][Dab][Phe(3-F)]V[Orn]C[Dab]-NH2; thioether N-14), in that order: 0.0093 µM and 0.0068 µM.
Consider `Cc1cccc(C[C@@H]2NC(=O)[C@H](CC(=O)O)NC(=O)[C@H](Cc3ccc(OCC(=O)O)cc3)NC(=O)[C@H](CCN)NC(=O)CSC[C@@H](C(=O)N[C@@H](CCN)C(N)=O)NC(=O)[C@H](CCC(N)=O)NC(=O)[C@H](C(C)C)NC(=O)[C@H](CC3CCCCC3)NC(=O)[C@H](CCN)NC(=O)[C@@H](CC(C)C)NC(=O)[C@H](C)N(C)C(=O)[C@H](Cc3ccc(C(N)=O)cc3)NC(=O)[C@H](Cc3ccc(-c4ccccc4)cc3)NC(=O)[C@H](Cc3ccc(OCC(=O)O)cc3)NC2=O)c1` [Example 5068] ({CH2CO}-[Dab]Y(Carboxymethyl)D[Phe(3-Me)]Y(Carboxymethyl)[Bip][Phe(4-CONH2)][NMeA][dL][Dab][Cha]VQC[Dab]-NH2; thioether N-14), for which the IC50 in experiment [1] was determined as 0.0106 µM; in experiment [2] it was 0.0172 µM.
